What was measured:
Assay type in all cases: cell-based
[1] = tested on: HCT 116 colorectal cancer cells; test: Cancer cell survival (CellTiter-Glo), HCT 116; conditions: HCT 116 cells, 72 h
Method: (§1) The cells were prepared as follows. Cells were harvested during logarithmic growth, counted, and adjusted to 4.44×10^4 cells/mL with culture media. 90 μL of suspended cells were added to wells of 96-well plates for a final cell count of 4×10^3 cells/well. The plates were incubated overnight at 37 C with 5% CO2 overnight.
(§2) The test compounds were assayed as follows. Compound solutions were mixed at 10× final concentrations in cell media: 1 μM-10 mM (fatty acids) or 100 nM-1 mM (all other compounds). […] of solution was added to each well of cells in triplicate for each concentration. Well plates were incubated for 72 h at 37 C with 5% CO2 and then assayed with CellTiter-Glo by adding 50 μL of CTG solution to each well. Cells were lysed by shaking on an orbital shaker for 5 min. Plates were incubated at room temperature for 20 min and then each well's luminescence was measured. The surviving percentage of cells was determined as:
(§3) Survival %=(LumTest article−LumMedium control)/(LumNone treated−LumMedium control)[…]
(§4) Cytotoxicity was assessed at nine concentration levels for each compound and the 50% inhibition concentration (IC50) determined for each compound.

A-431 skin cancer cells = test: Cancer cell survival (CellTiter-Glo), A-431; design: Cell survival at given concentration: unit not given here; conditions: A-431 cells, 72 h
Method: as §1, §2, §3, §4

A549 lung cancer cells = test: Cancer cell survival (CellTiter-Glo), A549; conditions: 72 h
Method: as §1, §2, §3, §4

AGS stomach cancer cells = test: Cancer cell survival (CellTiter-Glo), AGS; design: Cell survival at given concentration: unit not given here
Method: as §1, §2, §3, §4

[2] = tested on: Daudi lymphoma cancer cells; test: Cancer cell survival (CellTiter-Glo), Daudi; conditions: 72 h
Method: as §1, §2, §3
Activity was assessed at nine concentration levels for each compound and the 50% inhibition concentration (IC50) determined for each compound.

[3] = tested on: PC-3 prostate cancer cells; test: Cancer cell survival (CellTiter-Glo), PC-3; conditions: PC-3 cells, 72 h
Method: as §1, §2, §3, §4

T24 bladder cancer cells = test: Cancer cell survival (CellTiter-Glo), T24; conditions: 72 h
Method: as §1, §2, §3
Efficacy was assessed at nine concentration levels for each compound and the 50% inhibition concentration (IC50) determined for each compound.

MCF7 breast cancer cells = test: Cancer cell survival (CellTiter-Glo), MCF7; conditions: 72 h
Method: as §1, §2, §3, §4

## CC(=O)O [acetate]
[1]; 1 μM, Table 6.2
  Cell survival at given concentration: 1.01
[1]; 3 μM, Table 6.2
  Cell survival at given concentration: 1.03
[1]; 10 μM, Table 6.2
  Cell survival at given concentration: 1.03
[1]; 32 μM, Table 6.2
  Cell survival at given concentration: 1.03
[1]; 100 μM, Table 6.2
  Cell survival at given concentration: 1.06
[1]; 317 μM
  Cell survival at given concentration: 1.02
[1]; 1 mM
  Cell survival at given concentration: 1.02
[1]; 3 mM
  Cell survival at given concentration: 1.00
[1]; 10 mM
  Cell survival at given concentration: 0.84
[1]; Table 6.2
  IC50: > 10 mM
A-431 skin cancer cells; 1 μM, Table 9.2
  Cell survival at given concentration: 1.02
A-431 skin cancer cells; 3 μM, Table 9.2
  Cell survival at given concentration: 1.03
A-431 skin cancer cells; 10 μM, Table 9.2
  Cell survival at given concentration: 1.06
A-431 skin cancer cells; 32 μM, Table 9.2
  Cell survival at given concentration: 1.03
A-431 skin cancer cells; 100 μM, Table 9.2
  Cell survival at given concentration: 1.05
A-431 skin cancer cells; 317 μM
  Cell survival at given concentration: 1.05
A-431 skin cancer cells; 1 mM
  Cell survival at given concentration: 1.05
A-431 skin cancer cells; 3 mM
  Cell survival at given concentration: 1.02
A-431 skin cancer cells; 10 mM
  Cell survival at given concentration: 0.99
A549 lung cancer cells; 1 μM, Table 7.2
  Cell survival at given concentration: 1.00
A549 lung cancer cells; 3 μM, Table 7.2
  Cell survival at given concentration: 1.01
A549 lung cancer cells; 10 μM, Table 7.2
  Cell survival at given concentration: 1.00
A549 lung cancer cells; 32 μM, Table 7.2
  Cell survival at given concentration: 1.06
A549 lung cancer cells; 100 μM, Table 7.2
  Cell survival at given concentration: 1.09
A549 lung cancer cells; 317 μM
  Cell survival at given concentration: 1.02
A549 lung cancer cells; 1 mM
  Cell survival at given concentration: 1.03
A549 lung cancer cells; 3 mM
  Cell survival at given concentration: 1.03
A549 lung cancer cells; 10 mM
  Cell survival at given concentration: 1.00
AGS stomach cancer cells; 1 μM, Table 10.2
  Cell survival at given concentration: 0.99
AGS stomach cancer cells; 3 μM, Table 10.2
  Cell survival at given concentration: 1.00
AGS stomach cancer cells; 10 μM, Table 10.2
  Cell survival at given concentration: 1.02
AGS stomach cancer cells; 32 μM, Table 10.2
  Cell survival at given concentration: 1.03
AGS stomach cancer cells; 100 μM, Table 10.2
  Cell survival at given concentration: 1.03
AGS stomach cancer cells; 317 μM
  Cell survival at given concentration: 1.03
AGS stomach cancer cells; 1 mM
  Cell survival at given concentration: 1.02
AGS stomach cancer cells; 3 mM
  Cell survival at given concentration: 1.03
AGS stomach cancer cells; 10 mM
  Cell survival at given concentration: 1.02
[2]; 1 μM, Table 4.2
  Cell survival at given concentration: 1.00
[2]; 3 μM, Table 4.2
  Cell survival at given concentration: 0.99
[2]; 10 μM, Table 4.2
  Cell survival at given concentration: 0.99
[2]; 32 μM, Table 4.2
  Cell survival at given concentration: 1.01
[2]; 100 μM, Table 4.2
  Cell survival at given concentration: 1.02
[2]; 317 μM
  Cell survival at given concentration: 1.02
[2]; 1 mM
  Cell survival at given concentration: 1.01
[2]; 3 mM
  Cell survival at given concentration: 0.97
[2]; 10 mM
  Cell survival at given concentration: 0.75
[3]; 1 μM, Table 8.2
  Cell survival at given concentration: 1.05
[3]; 3 μM, Table 8.2
  Cell survival at given concentration: 1.00
[3]; 10 μM, Table 8.2
  Cell survival at given concentration: 1.02
[3]; 32 μM, Table 8.2
  Cell survival at given concentration: 1.03
[3]; 100 μM, Table 8.2
  Cell survival at given concentration: 1.07
[3]; 317 μM
  Cell survival at given concentration: 1.05
[3]; 1 mM
  Cell survival at given concentration: 1.01
[3]; 3 mM
  Cell survival at given concentration: 1.00
[3]; 10 mM
  Cell survival at given concentration: 0.88
[3]; Table 8.2
  IC50: > 10 mM
T24 bladder cancer cells; 1 μM, Table 3.2
  Cell survival at given concentration: 0.97
T24 bladder cancer cells; 3 μM, Table 3.2
  Cell survival at given concentration: 0.97
T24 bladder cancer cells; 10 μM, Table 3.2
  Cell survival at given concentration: 1.04
T24 bladder cancer cells; 32 μM, Table 3.2
  Cell survival at given concentration: 0.97
T24 bladder cancer cells; 100 μM, Table 3.2
  Cell survival at given concentration: 1.00
T24 bladder cancer cells; 317 μM
  Cell survival at given concentration: 1.01
T24 bladder cancer cells; 1 mM
  Cell survival at given concentration: 0.99
T24 bladder cancer cells; 3 mM
  Cell survival at given concentration: 0.97
T24 bladder cancer cells; 10 mM
  Cell survival at given concentration: 0.91
MCF7 breast cancer cells; 1 μM, Table 5.2
  Cell survival at given concentration: 1.01
MCF7 breast cancer cells; 3 μM, Table 5.2
  Cell survival at given concentration: 1.02
MCF7 breast cancer cells; 10 μM, Table 5.2
  Cell survival at given concentration: 0.98
MCF7 breast cancer cells; 32 μM, Table 5.2
  Cell survival at given concentration: 1.03
MCF7 breast cancer cells; 100 μM, Table 5.2
  Cell survival at given concentration: 1.02
MCF7 breast cancer cells; 317 μM
  Cell survival at given concentration: 1.04
MCF7 breast cancer cells; 1 mM
  Cell survival at given concentration: 0.99
MCF7 breast cancer cells; 3 mM
  Cell survival at given concentration: 0.99
MCF7 breast cancer cells; 10 mM
  Cell survival at given concentration: 0.91
